Our source for the inhibition values is publication PMC6257782, “Design, Synthesis, and Biological Evaluation of Benzylamino-Methanone Based Cholesteryl Ester Transfer Protein Inhibitors” (Molecules, 2010).

As a reminder, the inhibition is the drop in the measured response relative to a control, in per cent.

The assay concerns the target T1, CETP (from rabbit serum) (Oryctolagus cuniculus, UniProt P22687).
T1 construct: native CETP in whole rabbit serum, not purified; BioVision fluorescent CE transfer kit (introduction describes human CETP, 476 residues, PDB 2OBD, not the assayed protein)
T1 sequence (P22687 2-497): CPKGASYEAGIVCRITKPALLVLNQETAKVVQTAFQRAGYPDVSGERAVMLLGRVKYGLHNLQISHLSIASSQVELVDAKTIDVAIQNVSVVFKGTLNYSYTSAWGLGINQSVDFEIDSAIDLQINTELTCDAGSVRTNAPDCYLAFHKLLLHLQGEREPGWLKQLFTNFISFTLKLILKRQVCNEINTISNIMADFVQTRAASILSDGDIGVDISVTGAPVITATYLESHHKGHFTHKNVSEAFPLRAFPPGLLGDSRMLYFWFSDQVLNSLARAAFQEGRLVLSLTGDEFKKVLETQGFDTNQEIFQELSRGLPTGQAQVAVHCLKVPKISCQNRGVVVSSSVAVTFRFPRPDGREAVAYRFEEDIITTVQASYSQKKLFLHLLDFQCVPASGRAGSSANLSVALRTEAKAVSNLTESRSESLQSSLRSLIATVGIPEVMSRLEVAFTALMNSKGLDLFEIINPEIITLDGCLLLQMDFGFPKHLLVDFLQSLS
Briefly: fluorescent neutral lipid (CE) transfer assay, BioVision kit. Format: biochemical. Particulars: read-out: In vitro % inhibition of CETP at 10 μM. An excerpt:
fluorescent neutral lipid (CE) transfer assay, BioVision kit on CETP (from rabbit serum)
`COc1cccc(CNc2ccc(C(=O)c3ccc(C)cc3)cc2)c1` [compound 19, [4-(3-Methoxybenzylamino)phenyl]-p-tolyl-methanone]: the inhibition at 10 µM was found to be 16.4 ± 3%.

On to `Cc1ccc(C(=O)c2ccc(NCc3cccc(C(F)(F)F)c3)cc2)cc1` [compound 21, p-Tolyl-[4-(3-trifluoromethylbenzylamino)phenyl]-methanone], for which the inhibition at 10 µM turned out to be 16.7 ± 0.6%.

Consider `Cc1ccc(C(=O)c2ccc(NCc3ccc(C(F)(F)F)cc3)cc2)cc1` [compound 22, p-Tolyl-[4-(4-trifluoromethylbenzylamino)phenyl]-methanone], for which the inhibition at 10 µM worked out at 12.6 ± 2.6%.

Regarding `COc1ccc(C(=O)c2ccc(NCc3cccc(C(F)(F)F)c3)cc2)c(OC)c1` [compound 29, (2,4-Dimethoxyphenyl)-[4-(3-trifluoromethylbenzylamino)phenyl]-methanone], the inhibition at 10 µM turned out to be 19.5 ± 0.6%.

On to `COc1ccc(C(=O)c2ccc(NCc3ccc(C(F)(F)F)cc3)cc2)c(OC)c1` [compound 30, (2,4-Dimethoxyphenyl)-[4-(4-trifluoromethylbenzylamino)phenyl]-methanone], for which the inhibition at 10 µM worked out at 19.8 ± 2.9%.
